# Patent publication US10570122B2, “Compounds with anti-tumoral activity” (AB Science, priority 2015, dated 2020)
# Legend:
# [1] = tested on: REC1; assay: CellTiter-Blue cell-based survival/proliferation assay, REC1; conditions: Homo sapiens, Lymphoma cell line REC1, 48 h, read-out: Anti-tumoral activity (measured IC50) REC1
# Method in brief: (§1)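 Compounds, diluted tenfold serially over 0–10 μM, are applied to 1·10^4 seeded cells per well for 48 h at 37 °C. Resorufin formed during a further 4 h with CellTiter-Blue is detected by fluorescence emission at 590 nm.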
# [2] = tested on: DLD1; assay: CellTiter-Blue cell-based survival/proliferation assay, DLD1; conditions: Homo sapiens, DLD-1; DLD_1 colorectal tumor cell line, 48 h
# Method in brief: as §1
# [3] = tested on: HUT78; assay: CellTiter-Blue cell-based survival/proliferation assay, HUT78; conditions: Homo sapiens, Lymphoma cell line HUT78, 48 h, read-out: Anti-tumoral activity (measured IC50) HUT78
# Method in brief: as §1
# [4] = tested on: HEP2; assay: CellTiter-Blue cell-based survival/proliferation assay, HEP2; conditions: Homo sapiens, HEp-2; HEP2 head & neck tumor cell line, 48 h
# Method in brief: as §1
# [5] = tested on: PLCPRF5; assay: CellTiter-Blue cell-based survival/proliferation assay, PLCPRF5; conditions: Homo sapiens, PLC-PRF-5; PLC_PRF5 liver tumor cell line, 48 h
# Method in brief: as §1
# [6] = tested on: H1299; assay: CellTiter-Blue cell-based survival/proliferation assay, H1299; conditions: Homo sapiens, NCI-H1299; H1299 lung tumor cell line, 48 h
# Method in brief: as §1
# [7] = tested on: SW579; assay: CellTiter-Blue cell-based survival/proliferation assay, SW579; conditions: Homo sapiens; SW579 head & neck tumor cell line, 48 h
# Method in brief: as §1
# [8] = tested on: KARPAS299; assay: CellTiter-Blue cell-based survival/proliferation assay, KARPAS299; conditions: Homo sapiens, KARPAS-299, Lymphoma cell line KARPAS299, 48 h, read-out: Anti-tumoral activity (measured IC50) KARPAS299
# Method in brief: as §1
# [9] = tested on: HCT116; assay: CellTiter-Blue cell-based survival/proliferation assay, HCT116; conditions: Homo sapiens, HCT-116; HCT116 colorectal tumor cell line, 48 h
# Method in brief: as §1
# [10] = tested on: A549; assay: CellTiter-Blue cell-based survival/proliferation assay, A549; conditions: Homo sapiens; A549 lung tumor cell line, 48 h
# Method in brief: as §1
# [11] = tested on: CLS354; assay: CellTiter-Blue cell-based survival/proliferation assay, CLS354; conditions: Homo sapiens, CLS-354; CLS354_4 head & neck tumor cell line, 48 h
# Method in brief: as §1
# [12] = tested on: BT20; assay: CellTiter-Blue cell-based survival/proliferation assay, BT20; conditions: Homo sapiens, BT-20; BT20 breast tumor cell line, 48 h
# Method in brief: as §1
# [13] = tested on: OPM2; assay: CellTiter-Blue cell-based survival/proliferation assay, OPM2; conditions: Homo sapiens, OPM-2, Myeloma cell line OPM2, 48 h, read-out: Anti-tumoral activity (measured IC50) OPM2
# Method in brief: as §1
# [14] = tested on: panel of about 34 human tumor cell lines; assay: Cell-based proliferation screening on panel of tumor cell lines; conditions: solid tumor cell line, cell line unknown, 48 h, read-out: IC50, solid tumor cell line of column 6 (last section of Table 3)
# Method in brief: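 CellTiter-Blue survival assay with 1·10^4 cells/well, each line treated 48 h at 37° C with 1/10 serial dilutions from 0 to 10 μM. Resorufin formed during a 4 h reagent incubation is read by fluorescence at 590 nm. A cell-free blank serves as background.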
# [15] = tested on: A498; assay: CellTiter-Blue cell-based survival/proliferation assay, A498; conditions: Homo sapiens; A498 kidney tumor cell line, 48 h
# Method in brief: as §1
# [16] = tested on: AGS; assay: CellTiter-Blue cell-based survival/proliferation assay, AGS; conditions: Homo sapiens; AGS stomach tumor cell line, 48 h
# Method in brief: as §1
# [17] = tested on: MDAMB231; assay: CellTiter-Blue cell-based survival/proliferation assay, MDAMB231; conditions: Homo sapiens, MDA-MB-231; MDAMB231 breast tumor cell line, 48 h
# Method in brief: as §1
# [18] = tested on: BXPC3; assay: CellTiter-Blue cell-based survival/proliferation assay, BXPC3; conditions: Homo sapiens, BXPC-3; BXPC3 pancreas tumor cell line, 48 h
# Method in brief: as §1
# [19] = tested on: HL60; assay: CellTiter-Blue cell-based survival/proliferation assay, HL60; conditions: Homo sapiens, HL-60, Leukemia cell line HL60, 48 h, read-out: Anti-tumoral activity (measured IC50) HL60
# Method in brief: as §1
# [20] = tested on: CALU6; assay: CellTiter-Blue cell-based survival/proliferation assay, CALU6; conditions: Homo sapiens, Calu-6; CALU6 lung tumor cell line, 48 h
# Method in brief: as §1
# [21] = tested on: PANC1; assay: CellTiter-Blue cell-based survival/proliferation assay, PANC1; conditions: Homo sapiens, PANC-1; PANC_1 pancreas tumor cell line, 48 h
# Method in brief: as §1
# [22] = tested on: PC3; assay: CellTiter-Blue cell-based survival/proliferation assay, PC3; conditions: Homo sapiens, PC-3; PC3 prostate tumor cell line, 48 h
# Method in brief: as §1
# [23] = tested on: HGC27; assay: CellTiter-Blue cell-based survival/proliferation assay, HGC27; conditions: Homo sapiens, HGC-27; HGC27 stomach tumor cell line, 48 h
# Method in brief: as §1
# [24] = tested on: ACHN; assay: CellTiter-Blue cell-based survival/proliferation assay, ACHN; conditions: Homo sapiens; ACHN kidney tumor cell line, 48 h
# Method in brief: as §1
# [25] = tested on: DU145; assay: CellTiter-Blue cell-based survival/proliferation assay, DU145; conditions: Homo sapiens, DU-145; DU145 prostate tumor cell line, 48 h
# Method in brief: as §1
# [26] = tested on: MESSA; assay: CellTiter-Blue cell-based survival/proliferation assay, MESSA; conditions: Homo sapiens, MES-SA; MESSA ovary tumor cell line, 48 h
# Method in brief: as §1
# [27] = tested on: TOV112D; assay: CellTiter-Blue cell-based survival/proliferation assay, TOV112D; conditions: Homo sapiens; TOV112D ovary tumor cell line, 48 h
# Method in brief: as §1
# [28] = tested on: HEPG2; assay: CellTiter-Blue cell-based survival/proliferation assay, HEPG2; conditions: Homo sapiens; HEPG2 liver tumor cell line, 48 h
# Method in brief: as §1
IC50 [14] [nM],SMILES,IC50 [1] [nM],IC50 [2] [nM],IC50 [3] [nM],IC50 [4] [nM],IC50 [5] [nM],IC50 [6] [nM],IC50 [7] [nM],IC50 [8] [nM],IC50 [9] [nM],IC50 [10] [nM],IC50 [11] [nM],IC50 [12] [nM],IC50 [13] [nM],IC50 [15] [nM],IC50 [16] [nM],IC50 [17] [nM],IC50 [18] [nM],IC50 [19] [nM],IC50 [20] [nM],further results
> 1000,"CCOCc1ccc(C)c(Nc2ncc(-c3ccc(-n4ccc(C)n4)cc3)o2)c1 [Example 039, (5-Ethoxymethyl-2-methyl-phenyl)-{5-[4-(3-methyl-pyrazol-1-yl)-phenyl]-oxazol-2-yl}-amine]",500 to 1000,> 1000,500 to 1000,> 1000,> 1000,> 1000,> 1000,500 to 1000,> 1000,> 1000,> 1000,> 1000,> 1000,> 1000,> 1000,> 1000,> 1000,500 to 1000,> 1000,IC50 [21]: > 1000 nM; IC50 [22]: > 1000 nM; IC50 [23]: > 1000 nM; IC50 [24]: > 1000 nM; IC50 [25]: > 1000 nM; IC50 [26]: > 1000 nM; IC50 [27]: > 1000 nM; IC50 [28]: > 1000 nM
> 1000,"CCOCc1ccc(C)c(Nc2ncc(-c3ccc(-n4cc(C)cn4)cc3)o2)c1 [Example 040, (5-Ethoxymethyl-2-methyl-phenyl)-{5-[4-(4-methyl-pyrazol-1-yl)-phenyl]-oxazol-2-yl}-amine]",> 1000,> 1000,> 1000,> 1000,> 1000,> 1000,> 1000,> 1000,> 1000,> 1000,> 1000,> 1000,> 1000,> 1000,> 1000,> 1000,> 1000,> 1000,> 1000,IC50 [21]: > 1000 nM; IC50 [22]: > 1000 nM; IC50 [23]: > 1000 nM; IC50 [24]: > 1000 nM; IC50 [25]: > 1000 nM; IC50 [26]: > 1000 nM; IC50 [27]: > 1000 nM; IC50 [28]: > 1000 nM
100 to 500,"CCOCc1ccc(C)c(Nc2ncc(-c3ccc(N4CCN(C)C4=O)cc3)o2)c1 [Example 044, 1-{4-[2-(5-Ethoxymethyl-(2-methyl-phenylamino))-oxazol-5-yl]-phenyl}-3-methyl-imidazolidin-2-one]",100 to 500,> 1000,500 to 1000,> 1000,> 1000,> 1000,> 1000,100 to 500,> 1000,> 1000,500 to 1000,> 1000,500 to 1000,> 1000,> 1000,> 1000,> 1000,100 to 500,> 1000,IC50 [21]: > 1000 nM; IC50 [22]: 500 to 1000 nM; IC50 [23]: > 1000 nM; IC50 [24]: > 1000 nM; IC50 [25]: > 1000 nM; IC50 [26]: > 1000 nM; IC50 [27]: > 1000 nM; IC50 [28]: > 1000 nM
> 1000,"CCOCc1ccc(C)c(Nc2ncc(-c3ccc(N4CCN(CCN)C4=O)cc3)o2)c1 [Example 045, 1-(2-Amino-ethyl)-3-{4-[2-(5-ethoxymethyl-(2-methyl-phenylamino))-oxazol-5-yl]-phenyl}-imidazolidin-2-one]",> 1000,> 1000,> 1000,> 1000,> 1000,> 1000,> 1000,> 1000,> 1000,> 1000,> 1000,> 1000,> 1000,> 1000,> 1000,> 1000,> 1000,> 1000,> 1000,IC50 [21]: > 1000 nM; IC50 [22]: > 1000 nM; IC50 [23]: > 1000 nM; IC50 [24]: > 1000 nM; IC50 [25]: > 1000 nM; IC50 [26]: > 1000 nM; IC50 [27]: > 1000 nM; IC50 [28]: > 1000 nM
